Experimental findings from paper PMC8769072, “Proteome‐scale mapping of binding sites in the unstructured regions of the human proteome” (Molecular Systems Biology, 2022) are described below.

The assay relates to immobilized GST-tagged bait protein domains. Kind of assay: ProP-PD phage selections (HD2 P8, sublibraries, HD2 P3, HD1 P8) with NGS and confidence level. The settings on record: for HD2_nucleus confidence: library HD2 P8 nucleus. In kind it is binding, human.
[1] abbreviates: HD2 library, bait TLN1_PTB__Q9Y490_309_401, known motif instance of the benchmarking set found (TRUE) or not found (FALSE) among selected peptides.
The mark [2] stands for this setting: bait CALM1_EF-hand__P0DP23_2_149, library HD2, benchmarking set of validated motif instances, TRUE = motif instance recovered in the ProP-PD selection.
[3] abbreviates: bait PABP-B_PABP__P11940_544_623, HD2 library, confidence level (1-4) of best matching selected peptide.
The mark [4] stands for this setting: bait PABP-B_PABP__P11940_544_623, HD2 library, specificity score of best matching selected peptide.
Setting [5] is: bait PABP-B_PABP__P11940_544_623, HD2 library, whether the validated benchmark motif instance was recovered in the ProP-PD selection (TRUE/FALSE).
[6] abbreviates: library HD2, bait WDR5_WD_1234567_P61964_21_334, validated benchmark motif instance, in_library_check TRUE, TRUE/FALSE = instance recovered in ProP-PD selection.
Setting [7] is: HD2 library, bait CALM1_EF-hand__P0DP23_2_149, benchmark motif instance, in_library_check FALSE, in_library_coverage 0.
[8] abbreviates: bait PTK2_Focal-AT__Q05397_891_1050, HD2 library, whether the validated benchmark motif instance was recovered in the ProP-PD selection (TRUE/FALSE).
Setting [9] is: library HD2, bait Keap1_KELCH__Q14145_321_609, whether the validated benchmark motif instance was recovered in the ProP-PD selection (TRUE/FALSE).
[10] abbreviates: library HD2, bait EPS15_EH__P42566_121_215, best matching peptide.
The mark [11] stands for this setting: library HD2, bait EPS15_EH__P42566_121_215, confidence level of best matching peptide (4 High, 2-3 Medium, 1 Low).
The mark [12] stands for this setting: library HD2, bait EPS15_EH__P42566_121_215, whether the validated benchmark motif instance was recovered in the ProP-PD selection (TRUE/FALSE).
Where [13] appears, read: HD2 library, bait TNKS_TANK-peptide-bind__O95271_174_649, known motif instance of the benchmarking set found (TRUE) or not found (FALSE) among selected peptides.

Consider KLSKLDVLLLATTYIA, for which the HD2_nucleus confidence (bait SIN3A_PAH__Q96ST3_295_383) was found to be 4.

As for KMNAKWDTGENPIYKSAVTTVV, the motif_found result under setting [1] is “FALSE”.

For the substance KNSSCDTDDFVLVPHNISSD, the motif_found entry is recorded as “FALSE” (bait MAP1LC3A_ATG8 (Q9H492 2-121), HD2 library, benchmark motif instance recovered in the ProP-PD selection (TRUE/FALSE)) and “FALSE” (bait MAP1LC3B_ATG8 (Q9GZQ8 2-119), HD2 library, benchmark motif instance recovered in the ProP-PD selection (TRUE/FALSE)).

KRRWKKNFIAVSAANRFKKISSSGAL [MYLK2]: the motif_found result under setting [2] is reported as “FALSE”.

With KSTLNPNAKEFNPRSF, the best_confidence under setting [3] is reported as 2. Also, the best_specificity under setting [4] worked out at 1. The motif_found entry under setting [5] is “TRUE”.

On to KTAEKSDFEAVEALMSMSCSWKSD [KLF10 39-48], for which the motif_found result (HD2 library, bait SIN3A_PAH__Q96ST3_295_383, benchmark motif instance, in_library_check FALSE, in_library_coverage 0) was “FALSE”.

For the substance LAVNPTGCARSEPKMSAHVKR, under setting [6], the motif_found entry is on record as “FALSE”.

As to “LAYLRSHKDEVVKIQSLARMHQARKRYRDRLQYF [IQGAP1 806-825]”, the motif_found entry under setting [7] is “FALSE”.

Take LDEAFSRLAQSRTNPQ: the best_specificity (bait AP2B1_adaptin__P63010_700_937, library HD2, best matching peptide) amounted to 1. Moreover, for the setting “bait AP2B1_adaptin__P63010_700_937, library HD2, confidence level of best matching peptide (4 = High, 2 or 3 = Medium, 1 = Low)”, the best_confidence amounted to 2.

For LDPDKPTNFTNPVYATLYMGGH, under setting [1], the motif_found entry is given as “FALSE”.

LELDRLMASLSDFRVQ: for the setting “bait PTK2_Focal-AT__Q05397_891_1050, HD2 library, confidence level (1-4) of best matching selected peptide”, the best_confidence was 2. Also, where the note is “bait PTK2_Focal-AT__Q05397_891_1050, HD2 library, specificity score of best matching selected peptide”, the best_specificity worked out at 1. In addition, under setting [8], the motif_found entry is recorded as “TRUE”.

The substance LETKVFPRPVLPSLTV returned a p3_HD2 confidence (bait ANKRA2_Ank__Q9H9E1_142_313, library HD2 P3) of 2. Besides, the p3_HD2 count proportions (bait ANKRA2_Ank__Q9H9E1_142_313, library HD2 P3, mean normalised NGS counts) was 0.06348. Moreover, the p3_HD2 mean counts (bait ANKRA2_Ank__Q9H9E1_142_313, library HD2 P3, mean raw NGS counts, all selections) turned out to be 1066. This substance had an HD2 confidence (bait ANKRA2_Ank__Q9H9E1_142_313, library HD2 P8) of 4. The HD2_nc confidence (bait ANKRA2_Ank__Q9H9E1_142_313, library HD2 P8 nucleocytoplasmic) was 3. The substance further gave an HD2_nc count proportions (bait ANKRA2_Ank__Q9H9E1_142_313, library HD2 P8 nucleocytoplasmic, mean normalised NGS counts) of 0.1009. For the setting “bait ANKRA2_Ank__Q9H9E1_142_313, library HD2 P8 nucleocytoplasmic, mean raw NGS counts, all selections”, the HD2_nc mean counts is listed as 4420.0.

For the substance LFCQNLPPPLPPKKYA, the p3_HD2 confidence (bait CRK_SH3_1_P46108_124_198, HD2 P3 library, confidence level (4 = High, 2-3 = Medium, 1 = Low)) stood at 3. Further, the p3_HD2 mean counts (bait CRK_SH3_1_P46108_124_198, HD2 P3 library, mean NGS counts over replicate selections) was 10444.0. This substance gave a p3_HD2 count proportions (bait CRK_SH3_1_P46108_124_198, HD2 P3 library, mean proportion of NGS counts) of 0.2023.

With LFKSATTTVMNPKFAES-----, the motif_found entry under setting [1] is “FALSE”.

On to LHIKTHLDEETGEKTSITLD, for which the motif_found result under setting [9] is listed as “FALSE”.

LINVRKRNVESGEEELASKL: the motif_found result under setting [9] is reported as “FALSE”.

For “LKKLPSAVIALQRSFRSKRSKMLLEINRQK [IQCB1 321-336]”, the motif_found entry under setting [7] is given as “FALSE”.

For the substance LKNINSINFDNPVYQKTTEDEV, the motif_found entry under setting [1] is “FALSE”.

For the substance LKVLVKAVLFACMLMRK, the motif_found result (library HD2, bait CALM1_EF-hand__P0DP23_2_149, motif instance NOT in library (in_library_check FALSE, in_library_coverage 0)) is reported as “FALSE”.

With LLSIHKVYEAVELLKSNHFYR [GEMIN5 992-998], for the setting “HD2 library, bait EIF4E_eIF4E__P06730_1_217, benchmark motif instance, in_library_check FALSE, in_library_coverage 0”, the motif_found result is on record as “FALSE”.

As for LMINPTGCARSEPKILTHYKR, the motif_found entry under setting [6] is recorded as “FALSE”.

In the case of LNKYQGFIFDIVTK [SCN5A], the motif_found result under setting [2] was “FALSE”.

On to LNPFLTKSSGDVHLSI, for which the best_specificity under setting [10] is reported as 1. Further, under setting [11], the best_confidence is listed as 4. Further, the motif_found entry under setting [12] is “TRUE”.

LNPNAEVWGAPVLHLE displayed a best_confidence under setting [3] of 4. The best_specificity under setting [4] came out at 1. Besides, the motif_found entry under setting [5] is on record as “TRUE”.

Take LNQDFSGFQLLVDVALKRAAEM: the motif_found entry (bait SIN3A_PAH__Q96ST3_295_383, HD2 library, whether the validated benchmark motif instance was recovered in the ProP-PD selection (TRUE/FALSE)) is given as “FALSE”.

On to LPIPGTPPPNYDSLRLQP, for which the motif_found entry by setting is: (bait NEDD4_WW_4_P46934_890_928, HD2 library, whether the validated benchmark motif instance was recovered in the ProP-PD selection (TRUE/FALSE)) “FALSE”; (library HD2, bait YAP1_WW_1_P46937_169_207, validated benchmark motif instance, in_library_check TRUE, TRUE/FALSE = instance recovered in ProP-PD selection) “FALSE”.

Take LPLEFSDDLDVVGDGMQC: under setting [6], the motif_found result is on record as “FALSE”.

For the substance “LPLYTSPSLPNITLGLP,PLPLYTSPSLPNITLGLPATGPSA [HDAC4]”, where the note is “bait ANKRA2_Ank__Q9H9E1_142_313, library HD2, benchmarking set of validated motif instances, TRUE = motif instance recovered in the ProP-PD selection”, the motif_found entry is “TRUE”.

LPRTQPDGTSVPGEPA gave a best_specificity (HD2 library, bait TNKS_TANK-peptide-bind__O95271_174_649, best matching selected peptide) of 1. Further, under “HD2 library, bait TNKS_TANK-peptide-bind__O95271_174_649, confidence level of best matching selected peptide”, the best_confidence came out at 2. Moreover, under setting [13], the motif_found entry is “TRUE”.

Consider LQDVQPSPINPFSAFF, for which the best_specificity under setting [10] is 1. The best_confidence under setting [11] is 2. The motif_found entry under setting [12] is “TRUE”.

On to LQLPSLDDQVIPARLP, for which the HD confidence (bait ANKRA2_Ank__Q9H9E1_142_313, library HD) is 3. The HD count proportions (bait ANKRA2_Ank__Q9H9E1_142_313, library HD, mean normalised NGS counts) is on record as 0.001339. The substance further came in with an HD mean counts (bait ANKRA2_Ank__Q9H9E1_142_313, library HD, mean raw NGS counts, all selections) of 12.75.

With LQQSIAREPSAPSIPTPAYQ, the motif_found entry (library HD2, bait TSG101_UEV__Q99816_1_145, validated benchmark motif instance, in_library_check TRUE, TRUE/FALSE = instance recovered in ProP-PD selection) is given as “FALSE”.

As to “LQYFRDHINDIIKIQAFIRANKARDDYKTLINA [IQGAP1 836-854]”, under setting [7], the motif_found result is given as “FALSE”.

With “LRRGQILWFRGLNRIQTQIDVINTFQTGASFKGVLRRQNMGQHLDVKLVPSSSYIKVVKAFHSS [ATP2B4]”, the motif_found entry under setting [2] is “FALSE”.

With LSELDRLLLELN, the motif_found entry under setting [8] was “FALSE”.

Where the note is “bait SIN3A_PAH__Q96ST3_295_383”, LSKLDVLVLAASYIAH displayed an HD2_nucleus confidence of 4.

As for LSKMQQNGYENPTYKFFEQMQN, the motif_found result under setting [1] is given as “FALSE”.

As to LSLGSAGERGEAEGCPPSREAE, the motif_found result under setting [13] is on record as “FALSE”.

For the substance LSSPLVPGNPFEEPTCINP, the motif_found entry under setting [12] is listed as “FALSE”.

On to LSVNAPEFYPSGYSSS, for which, under setting [3], the best_confidence was determined as 3. For the same substance, the best_specificity under setting [4] worked out at 1. Also, the motif_found result under setting [5] is “TRUE”.

Regarding LSVSPARWAEEYLEQSEEK, where the note is “bait PEX14_Pex14__O75381_16_84, HD2 library, whether the validated benchmark motif instance was recovered in the ProP-PD selection (TRUE/FALSE)”, the motif_found entry is “FALSE”.

LSWPDLLSDPSIVGSN: where the note is “bait CALM1 EF-hand (P0DP23, 2-149), HD2 library selection with 1mM_CaCl, confidence level (4 = High, 2 or 3 = Medium, 1 = Low)”, the HD2-1mM_CaCl confidence is 3. In addition, the HD2 confidence (bait CALM1 EF-hand (P0DP23, 2-149), HD2 library selection, confidence level (4 = High, 2 or 3 = Medium, 1 = Low)) is recorded as 3.

In the case of LYKEATSTFTNITYRGT-----, under setting [1], the motif_found entry was “FALSE”.

Consider LYNFPQSPPAQYSPMH, for which the HD2_nc confidence (bait CEP55_EABR__Q53EZ4_160_217, HD2 P8 nucleocytoplasmic sublibrary, confidence level (4 = High, 2-3 = Medium, 1 = Low)) stood at 4. The substance also showed an HD2_nc mean counts (bait CEP55_EABR__Q53EZ4_160_217, HD2 P8 nucleocytoplasmic sublibrary, mean NGS counts over replicate selections) of 101.3. For the same substance, under “bait CEP55_EABR__Q53EZ4_160_217, HD2 P8 nucleocytoplasmic sublibrary, mean proportion of NGS counts”, the HD2_nc count proportions amounted to 0.001637.

Consider LYPTDCPPSYEAVMGL, for which, where the note is “bait NEDD4_WW_4_P46934_890_928, HD2 P3 library, confidence level (4 = High, 2-3 = Medium, 1 = Low)”, the p3_HD2 confidence worked out at 3. Also, the p3_HD2 mean counts (bait NEDD4_WW_4_P46934_890_928, HD2 P3 library, mean NGS counts over replicate selections) was found to be 285.3. This substance also registered a p3_HD2 count proportions (bait NEDD4_WW_4_P46934_890_928, HD2 P3 library, mean proportion of NGS counts) of 0.005597. The HD2_cytoplasm confidence (bait NEDD4_WW_4_P46934_890_928, HD2 P8 cytoplasm sublibrary, confidence level (4 = High, 2-3 = Medium, 1 = Low)) is listed as 4.

In the case of MDDLDALLADLESTTSHIS, the motif_found entry under setting [8] is “FALSE”.

In the case of MDVFMKGLSKAKEGVVAAA [SNCA], the motif_found result under setting [2] is on record as “FALSE”.
